Experimental data reported in the supplement of paper PMC5412046.
Structures can show the parent of a compound that is named as a salt.

What was measured:
SB.mhdgc-1 = experiment: AC50 for growth inhibition (viability) (log10 M); higher = less potent; settings: SB.mhdgc-1 (hereditary c.1380delA CDH1 gastric cancer)
Procedure, shortened: (§1)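 Log half-maximal activity concentration reflects viability of patient-derived gastric cancer cells, hereditary or sporadic, normalised to DMSO and fitted with four parameters, with only high-quality curve classes retained. Wells of a 1536 plate held 500 cells and received compound by pintool at 11 threefold dilutions from a final 46 μM. Luminescence from CellTiter-Glo was read on a ViewLux at 48 h.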

SB.msgc-1 = experiment: as above; settings: SB.msgc-1 (sporadic gastric cancer)
Procedure, shortened: as §1

SMILES | AC50 for growth inhibition (log10 M) (SB.mhdgc-1) | AC50 for growth inhibition (log10 M) (SB.msgc-1)
COc1cc(C[C@@H](CO)[C@H](CO)Cc2ccc(O)c(OC)c2)ccc1O [Secoisolariciresinol] | -6.38 | -6.63
C[S+](=O)([O-])Oc1ccc2c(NC(N)=O)c(C(=O)c3ccc(Cl)cc3Cl)oc2c1 [Lirimilast] | -6.08 | -5.53
O=C1c2c(O)ccc(O)c2C(=O)c2c(NCCNCCO)ccc(NCCNCCO)c21 [Mitoxantrone] | -7.13 | -5.88
CC(C)n1cnc2c(NCCCCCCNC(=O)OC(C)(C)C)nc(NCCO)nc21 [CK59] | -4.93 | -5.23
COC1=CC2=C(C=C1CC3=C(F)C(=CC=C3)Cl)C(=O)\C(=C/N2[C@H](CO)C(C)C)C(O)=O [Elvitegravir] | -4.78 | -4.68
C[C@]12CC[C@H]3[C@@H](C\C=C/4C[C@@H](O)CC[C@]34C)[C@@H]1CCC2=O [Dehydroepiandrosterone] | -5.78 | -4.78
CC(C)(C)c1nc(-c2cccc(N[S+](=O)([O-])c3c(F)cccc3F)c2F)c(-c2ccnc(N)n2)s1 [Dabrafenib] | -4.73 | -4.88
O=C1\C=C(/OC2=C1C=CC=C2C3=CC=CC=C3)N4CCOCC4 | -5.18 | -4.73
COC1CCC(C(=O)c2ccc3nc4c(cc3c2)CCCO4)CC1 (stereo not given) | -4.78 | -4.78
COc1cc2c(cc1OC)[C@@H]1Cc3ccc(OC)c(OC)c3CN1CC2 [Rotundine] | -5.28 | -4.73
O=C(Nc1c[nH]nc1-c1nc2cc(CN3CCOCC3)ccc2[nH]1)NC1CC1 [AT-9283] | -6.18 | -5.38
O=C(c1ccccc1)c1ccc2n1CCC2C(=O)O (stereo not given) [Ketorolac] | -5.98 | -5.78
COc1cccc2c1C(=O)c1c(O)c3c(c(O)c1C2=O)C[C@@](O)(C(=O)CO)C[C@@H]3O[C@H]1C[C@H](N)[C@H](O[C@H]2CCCCO2)[C@H](C)O1 [Pirarubicin] | -6.08 | -5.68
CCOC(=O)N1CCN(/[N+]([O-])=N/Oc2ccc([N+](=O)[O-])cc2C#N)CC1 [JS-59-4] | -4.78 | -5.13
C[N+](C)([O-])CCNc1ccc(NCC[N+](C)(C)[O-])c2c1C(=O)c1c(O)ccc(O)c1C2=O [Banoxantrone] | -4.78 | -4.88
C=C1C(=O)[C@@]23C(CC[C@@H]1[C@H]2O)[C@@]12CO[C@]3(O)[C@@H](O)[C@@H]1C(C)(C)CC[C@@H]2O (stereo not given in full) [Oridonin] | -4.98 | -4.73
C/C=C(/C)C(=O)O[C@H]1C(C)=C2[C@H]([C@@H]1OC(=O)CCCCCCC)[C@@](C)(OC(C)=O)C[C@H](OC(=O)CCC)[C@@]1(O)[C@H]2OC(=O)[C@@]1(C)O [Thapsigargin] | -6.98 | -7.43
CCN(CC)CCCCNc1nc2cc(Cl)c(Cl)cc2nc1-c1ccc(-c2cccs2)s1 | -5.03 | -4.68
NC/1=N/C(=O)C2=C([NH]C=C2CCC3=CC=C(C=C3)C(=O)N[C@@H](CCC(O)=O)C(O)=O)N1 [Pemetrexed disodium] | -6.33 | -6.23
COc1c(C)c2c(c(O)c1C/C=C(\C)CCC(=O)O)C(=O)OC2 [Mycophenolic acid] | -5.48 | -5.93
COC1=CC(=CC=C1)C2=CC=C(NC(=O)/C3=C(/CCC3)C(O)=O)C(=C2)F [Vidofludimus] | -5.33 | -4.88
C[C@H]([C@H]1C\C(=C(CO)/C(=O)O1)C)[C@H]2CC[C@H]3[C@@H]4C[C@H]5O[C@]56[C@@H](O)\C=C/C(=O)[C@]6(C)[C@H]4CC[C@]23C [Withaferin A] | -5.68 | -5.78
CC(C)C[C@@H](C=O)NC(=O)[C@H](CC(C)C)NC(=O)[C@H](CC(C)C)NC(=O)OCc1ccccc1 [MG-132] | -6.33 | -6.08
COc1ccc(CCC(=O)c2c(O)cc(O[C@@H]3O[C@H](CO)[C@@H](O)[C@H](O)[C@H]3O[C@@H]3O[C@@H](C)[C@H](O)[C@@H](O)[C@H]3O)cc2O)cc1O [Neohesperidin dihydrochalcone] | -5.28 | -5.18
C=CCNc1c(O)cc2c(O)c1C[C@@H](C)C[C@H](OC)[C@H](O)[C@@H](C)/C=C(/C)[C@H](OC(N)=O)[C@@H](OC)/C=C\C=C(\C)C(=O)N2 [Retaspimycin] | -6.88 | -7.48

SMILES | AC50 for growth inhibition (log10 M) (SB.mhdgc-1) | AC50 for growth inhibition (log10 M) (SB.msgc-1)
COc1cc2nccc(Oc3ccc(NC(=O)Nc4cc(C)on4)c(Cl)c3)c2cc1OC [Tivozanib] | -5.28 | -5.58
CO[C@H]1/C=C\C=C(\C)C(=O)NC2=CC(=O)C(NCCN(C)C)=C(C[C@@H](C)C[C@H](OC)[C@H](O)[C@@H](C)/C=C(/C)[C@@H]1OC(N)=O)C2=O [Alvespimycin hydrochloride] | -7.38 | -6.83
CN(C)C(=O)[C@H](O)[C@H](Cc1ccccc1)NC(=O)c1cc2cc(Cl)ccc2[nH]1 | -5.23 | -5.13
C[C@H]1[C@@H](OC(=O)CCC(=O)O)O[C@@H]2O[C@@]3(C)CC[C@H]4[C@H](C)CC[C@@H]1[C@@]24OO3 [Artesunate (AS)] | -5.03 | -5.18
CNC(=O)c1ccc(N2C(=S)N(c3ccc(C#N)c(C(F)(F)F)c3)C(=O)C23CCC3)cc1F [RD-162] | -5.08 | -5.13
O=C(Nc1cccc(Nc2ncc(Br)c(NCCc3cnc[nH]3)n2)c1)N1CCCC1 [BX-912] | -4.98 | -4.78
CCNC(=O)Nc1ccc2ncc(Nc3ccc(C)cc3)nc2n1 | -7.43 | -6.43
CC(C)NCC(O)c1ccc(O)c(O)c1 (stereo not given) [Isoprenaline hydrochloride] | -5.43 | -4.83
C#CCC(Cc1cnc2nc(N)nc(N)c2n1)c1ccc(C(=O)N[C@@H](CCC(=O)O)C(=O)O)cc1 (stereo not given in full) [Pralatrexate] | -6.58 | -7.28
CCC[C@H](NC(=O)/C(C#N)=C/c1cccc(Br)n1)c1ccccc1 [Degrasyn] | -5.58 | -5.43
NC(=O)Nc1sc(-c2ccc(F)cc2)cc1C(N)=O [TPCA-1] | -5.93 | -5.48
CC1=C(/C=C/C(C)=C/C=C/C(C)=C\C(=O)O)C(C)(C)CCC1 [Isotretinoin] | -4.63 | -5.33
Cn1c2ccccc2c2c3c(c4c5ccccc5n(CCC#N)c4c21)CNC3=O [G?-6976] | -5.08 | -5.23
FC(F)c1nc2ccccc2n1-c1nc(N2CCOCC2)nc(N2CCOCC2)n1 [ZSTK-474] | -6.48 | -5.98
COc1cc(O)c2c(c1)C1OC1C[C@H](O)[C@H](O)C(=O)/C=C\C[C@H](C)OC2=O (stereo not given in full) [Hypothemycin] | -5.03 | -4.83
C[C@H]1O[C@H](C[C@H](O)[C@@H]1O)O[C@H]2[C@@H](O)C[C@@H](O[C@@H]2C)O[C@H]3[C@@H](O)C[C@@H](O[C@@H]3C)O[C@H]4CC[C@@]5(C)[C@H](CC[C@@H]6[C@@H]5C[C@@H](O)[C@]7(C)[C@H](CC[C@]67O)C/8=C/C(=O)OC8)C4 [Digoxin] | -6.62 | -6.62
CC(C)(C)Cn1c(N)nc2ccc(-c3[nH]c(C(C)(C)C)nc3-c3ccc(F)cc3)nc21 | -4.53 | -4.73
c1cc(-c2cnn3cc(-c4ccc(OCCN5CCCCC5)cc4)cnc23)ccn1 [Dorsomorphin] | -4.83 | -4.78
OCCNC1CCCc2c1[nH]c1ccc(-c3ccccc3)cc21 (stereo not given) [CASIN] | -4.73 | -4.63
COc1cc(C(=O)NC2CCN(C)CC2)ccc1Nc1ncc2c(n1)N(C1CCCC1)CCC(=O)N2C(C)C | -5.13 | -4.73
COc1cc2nc(N3CCCN(C)CC3)nc(NC3CCN(Cc4ccccc4)CC3)c2cc1OC | -5.28 | -4.88
Nc1nc(Cl)nc2c1ncn2[C@@H]1O[C@H](CO)[C@@H](O)[C@@H]1F [Clofarabine] | -7.83 | -8.28
COC1=C(CC=C(C)C)C2=C(\C=C/C(=O)O2)C=C1 [Osthol] | -5.78 | -5.53
COc1cc2ncn(-c3cc(OCc4ccccc4C(F)(F)F)c(C(N)=O)s3)c2cc1OC | -5.43 | -5.63
CC(C)n1cnc2c(NCCc3ccc(O)cc3)nc(-c3csc4ccccc34)nc21 [StemRegenin 1] | -5.78 | -4.88
